In brackets after ≈: the same amount, converted by molar mass.
Experiments:
Format in all cases: functional
[1] = tested on: Staphylococcus aureus; assay: Antibacterial activity against methicillin-resistant Staphylococcus aureus assessed as bacterial growth inhibition incubated for 24 hrs by CLSI based two serial dilution assay
[2] = tested on: Enterococcus faecalis; assay: Antibacterial activity against Enterococcus faecalis assessed as bacterial growth inhibition incubated for 24 hrs by CLSI based two serial dilution assay
[3] = tested on: Staphylococcus aureus; assay: Antibacterial activity against Staphylococcus aureus assessed as bacterial growth inhibition incubated for 24 hrs by CLSI based two serial dilution assay
[4] = tested on: Staphylococcus aureus; assay: Antibacterial activity against Staphylococcus aureus 25923 assessed as bacterial growth inhibition incubated for 24 hrs by CLSI based two serial dilution assay
[5] = tested on: Staphylococcus aureus; assay: Antibacterial activity against Staphylococcus aureus 29213 assessed as bacterial growth inhibition incubated for 24 hrs by CLSI based two serial dilution assay
[6] = tested on: Klebsiella pneumoniae; assay: Antibacterial activity against Klebsiella pneumoniae assessed as bacterial growth inhibition incubated for 24 hrs by CLSI based two serial dilution assay
[7] = tested on: Escherichia coli; assay: Antibacterial activity against Escherichia coli assessed as bacterial growth inhibition incubated for 24 hrs by CLSI based two serial dilution assay
[8] = tested on: Escherichia coli; assay: Antibacterial activity against Escherichia coli 25922 assessed as bacterial growth inhibition incubated for 24 hrs by CLSI based two serial dilution assay
[9] = tested on: Pseudomonas aeruginosa; assay: Antibacterial activity against Pseudomonas aeruginosa assessed as bacterial growth inhibition incubated for 24 hrs by CLSI based two serial dilution assay
[10] = tested on: Pseudomonas aeruginosa; assay: Antibacterial activity against Pseudomonas aeruginosa ATCC 27853 assessed as bacterial growth inhibition incubated for 24 hrs by CLSI based two serial dilution assay
[11] = tested on: Acinetobacter baumannii; assay: Antibacterial activity against Acinetobacter baumannii assessed as bacterial growth inhibition incubated for 24 hrs by CLSI based two serial dilution assay
[12] = tested on: Staphylococcus aureus; assay: Induction of resistance development in methicillin-resistant Staphylococcus aureus assessed as fold increase in MIC measured after consecutive passages for 24 hrs by serial passaging assay
[13] = tested on: Candida albicans; assay: Antifungal activity against Candida albicans assessed as inhibition of fungal growth incubated for 24 hrs by CLSI based two serial dilution assay
[14] = tested on: Candida albicans; assay: Antifungal activity against Candida albicans ATCC 90023 assessed as inhibition of fungal growth incubated for 24 hrs by CLSI based two serial dilution assay
[15] = tested on: Candida tropicalis; assay: Antifungal activity against Candida tropicalis assessed as inhibition of fungal growth incubated for 24 hrs by CLSI based two serial dilution assay
[16] = tested on: Candida parapsilosis; assay: Antifungal activity against Candida parapsilosis ATCC 22019 assessed as inhibition of fungal growth incubated for 24 hrs by CLSI based two serial dilution assay; conditions: Lodderomyces parapsilosis
[17] = tested on: Aspergillus fumigatus; assay: Antifungal activity against Aspergillus fumigatus assessed as inhibition of fungal growth incubated for 24 hrs by CLSI based two serial dilution assay

| Compound | MIC [1] [µM] | MIC [2] [µM] | MIC [3] [µM] | MIC [4] [µM] | MIC [5] [µM] | MIC [6] [µM] | MIC [7] [µM] | MIC [8] [µM] | MIC [9] [µM] | MIC [10] [µM] | MIC [11] [µM] | fold change (FC) [12] | MIC [13] [µM] | MIC [14] [µM] | MIC [15] [µM] | MIC [16] [µM] | MIC [17] [µM] |
| --- | --- | --- | --- | --- | --- | --- | --- | --- | --- | --- | --- | --- | --- | --- | --- | --- | --- |
| CCn1cc(C(=O)O)c(=O)c2cc(F)c(N3CCNCC3)cc21 [NORFLOXACIN] | 4 (≈ 1.28 µg/mL) | 4 (≈ 1.28 µg/mL) | 1 (≈ 0.319 µg/mL) | 1 (≈ 0.319 µg/mL) | 2 (≈ 0.639 µg/mL) | 4 (≈ 1.28 µg/mL) | 16 (≈ 5.11 µg/mL) | 8 (≈ 2.55 µg/mL) | 2 (≈ 0.639 µg/mL) | 0.5 (≈ 0.16 µg/mL) | 8 (≈ 2.55 µg/mL) | 4 | – | – | – | – | – |
| C=CCN1C(=O)/C(=N\Nc2nccs2)c2ccccc21 | 512 (≈ 146 µg/mL) | 64 (≈ 18.2 µg/mL) | 64 (≈ 18.2 µg/mL) | 128 (≈ 36.4 µg/mL) | 128 (≈ 36.4 µg/mL) | 256 (≈ 72.8 µg/mL) | 64 (≈ 18.2 µg/mL) | 512 (≈ 146 µg/mL) | 512 (≈ 146 µg/mL) | 16 (≈ 4.55 µg/mL) | 512 (≈ 146 µg/mL) | – | 256 (≈ 72.8 µg/mL) | 512 (≈ 146 µg/mL) | 32 (≈ 9.1 µg/mL) | 128 (≈ 36.4 µg/mL) | 4 (≈ 1.14 µg/mL) |
| CCCCN1C(=O)/C(=N\Nc2nccs2)c2cc([N+](=O)[O-])ccc21 | 512 (≈ 177 µg/mL) | 512 (≈ 177 µg/mL) | 512 (≈ 177 µg/mL) | 512 (≈ 177 µg/mL) | 512 (≈ 177 µg/mL) | 512 (≈ 177 µg/mL) | 512 (≈ 177 µg/mL) | 512 (≈ 177 µg/mL) | 512 (≈ 177 µg/mL) | 512 (≈ 177 µg/mL) | 0.5 (≈ 0.173 µg/mL) | – | 512 (≈ 177 µg/mL) | 512 (≈ 177 µg/mL) | 512 (≈ 177 µg/mL) | 512 (≈ 177 µg/mL) | 512 (≈ 177 µg/mL) |
| CCCCCCCCN1C(=O)/C(=N\Nc2nccs2)c2ccccc21 | 512 (≈ 183 µg/mL) | 32 (≈ 11.4 µg/mL) | 512 (≈ 183 µg/mL) | 512 (≈ 183 µg/mL) | 512 (≈ 183 µg/mL) | 512 (≈ 183 µg/mL) | 512 (≈ 183 µg/mL) | 256 (≈ 91.3 µg/mL) | 64 (≈ 22.8 µg/mL) | 128 (≈ 45.6 µg/mL) | 512 (≈ 183 µg/mL) | – | 512 (≈ 183 µg/mL) | 256 (≈ 91.3 µg/mL) | 512 (≈ 183 µg/mL) | 128 (≈ 45.6 µg/mL) | 512 (≈ 183 µg/mL) |
